Measurements as given in article doi:10.64898/2025.12.04.692444v1, “Calcium Dependent Protein Kinase 3 is not essential for the asexual replication of Plasmodium falciparum” (biorxiv, 2025).

How the values were obtained:
[1] = target: T1, PfCDPK3 (full-length recombinant CDPK3) (Plasmodium falciparum, UniProt Q9NJU9); test: semi-synthetic epitope tagging: thiophosphorylation, PNBM alkylation, anti-thiophosphate ester Western blot; format: biochemical; settings: GST as exogenous substrate; 100 µM ATPγS; 5 mM CaCl2; 50 mM MgCl2; 50 mM Tris; 30 °C, 2 h
T1 construct: some truncated fragments
T1 sequence (Q9NJU9 1-562): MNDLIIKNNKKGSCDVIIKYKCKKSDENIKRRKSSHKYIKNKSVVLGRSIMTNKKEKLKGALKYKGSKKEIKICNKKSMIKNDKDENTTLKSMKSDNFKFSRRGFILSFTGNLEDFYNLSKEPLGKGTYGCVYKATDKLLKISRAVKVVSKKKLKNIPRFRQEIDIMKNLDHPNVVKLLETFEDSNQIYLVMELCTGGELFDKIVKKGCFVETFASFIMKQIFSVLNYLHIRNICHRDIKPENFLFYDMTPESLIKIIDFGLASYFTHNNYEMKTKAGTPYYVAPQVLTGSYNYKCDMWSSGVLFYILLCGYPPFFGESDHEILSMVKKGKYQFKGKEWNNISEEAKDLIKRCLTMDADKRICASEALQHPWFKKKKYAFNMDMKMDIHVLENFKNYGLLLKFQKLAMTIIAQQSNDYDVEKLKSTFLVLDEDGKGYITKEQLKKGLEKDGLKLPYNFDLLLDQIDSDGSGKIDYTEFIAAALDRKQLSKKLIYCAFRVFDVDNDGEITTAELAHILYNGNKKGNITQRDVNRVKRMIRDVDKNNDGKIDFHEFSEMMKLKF

[2] = target: T1, PfCDPK3 (full-length recombinant CDPK3); test: ADP-Glo luminescence kinase assay; format: biochemical; settings: MBP as exogenous substrate; 100 µM ATP; 5 mM CaCl2; 20 mM MgCl2; 40 mM Tris-Cl pH 7.5; 30 °C, 1 h

`Nc1ncnc2c1ncn2[C@@H]1O[C@H](COP(=O)(O)OP(=O)(O)OP(O)(O)=S)[C@@H](O)[C@H]1O` [ATPγS] was tested, and the “semi-synthetic epitope tagging: thiophosphorylation, PNBM alkylation, anti-thiop” value [1] was “ATPγS, a ATP analog, containing terminal thiophosphate group was used as the source”.

For `Nc1ncnc2c1ncn2[C@@H]1O[C@H](COP(=O)(O)OP(=O)(O)OP(=O)(O)O)[C@@H](O)[C@H]1O` [ATP], the “ADP-Glo luminescence kinase assay” value [2] was “conversion of ATP to ADP by the recombinant CDPK3, was higher in the presence of calcium”.
